# Source: patent US20260124214A1, “HETEROCYCLIC COMPOUNDS FOR USE IN THE TREATMENT OF CANCER” (ARTIOS PHARMA LIMITED, priority 2021, published 2026)
# Biological target: T1, Human Polθ polymerase domain (aa1820-2590) (Homo sapiens, UniProt O75417)
# T1 construct: Human Polθ polymerase domain (aa1820-2590) was expressed in E. Coli; made in house; host or cells: E. coli
# T1 sequence (O75417 1820-2590): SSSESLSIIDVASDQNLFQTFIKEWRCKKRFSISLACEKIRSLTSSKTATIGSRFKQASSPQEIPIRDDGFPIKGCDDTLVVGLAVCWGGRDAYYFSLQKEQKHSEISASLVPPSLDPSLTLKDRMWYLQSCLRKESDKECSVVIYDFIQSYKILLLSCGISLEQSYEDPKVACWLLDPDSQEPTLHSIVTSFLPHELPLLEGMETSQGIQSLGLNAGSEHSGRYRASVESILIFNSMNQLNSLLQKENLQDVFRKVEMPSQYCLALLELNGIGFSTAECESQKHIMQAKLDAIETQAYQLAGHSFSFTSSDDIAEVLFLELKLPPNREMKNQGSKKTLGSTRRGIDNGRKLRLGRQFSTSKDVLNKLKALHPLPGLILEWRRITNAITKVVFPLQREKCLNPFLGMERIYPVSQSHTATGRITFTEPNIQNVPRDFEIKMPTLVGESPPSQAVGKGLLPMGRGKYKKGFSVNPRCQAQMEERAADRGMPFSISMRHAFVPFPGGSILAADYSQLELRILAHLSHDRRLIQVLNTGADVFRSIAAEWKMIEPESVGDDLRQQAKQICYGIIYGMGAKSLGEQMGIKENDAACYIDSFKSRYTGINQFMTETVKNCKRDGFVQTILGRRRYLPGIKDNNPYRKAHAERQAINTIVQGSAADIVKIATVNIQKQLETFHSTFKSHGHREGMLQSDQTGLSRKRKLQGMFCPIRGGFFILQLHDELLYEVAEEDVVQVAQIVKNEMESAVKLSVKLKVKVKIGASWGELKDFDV
# Assay: Polθ Polymerase Domain WT KI Assay (PicoGreen)
# Assay type: biochemical
# Details: 100 nM DNA substrate, 0.156 nM Polθ, initial rates vs inhibitor concentration
# Procedure, shortened: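 E. coli-expressed human Polθ polymerase domain (aa1820-2590) on annealed DNA II Short/Long primer-template (1.2:1), in 25 mM Tris pH 7.5, NaCl, 5% glycerol, 0.01% Triton X-100, 0.1 mg/ml BSA, 1 mM DTT, 1% DMSO. EDTA-quenched timepoints to 180 min, PicoGreen fluorescence. Initial rates vs inhibitor concentration fitted four-parameter for KI.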
row,Compound,Ki [nM]
1,"Cc1cc(C(F)(F)F)cc(N2C(=O)C[C@@H]3CN(CCCN4CCOCC4)c4c(F)cccc4N(C)C(=O)[C@H]32)n1 [Example 137, (3aR,11aS)-6-Fluoro-10-methyl-1-(6-methyl-4-(trifluoromethyl)pyridin-2-yl)-5-(3-morpholinopropyl)-1,3a,4,5,10,11a-hexahydro-2H-benzo[b]pyrrolo[2,3-f][1,4]diazocine-2,11(3H)-dione]",10.1
2,"Cc1cc(C(F)(F)F)cc(N2C(=O)C[C@@H]3CN(c4cccnc4)c4c(F)cccc4N(C)C(=O)[C@H]32)n1 [Example 138, (3aR,11aS)-6-Fluoro-10-methyl-1-(6-methyl-4-(trifluoromethyl)pyridin-2-yl)-5-(pyridin-3-yl)-1,3a,4,5,10,11a-hexahydro-2H-benzo[b]pyrrolo[2,3-f][1,4]diazocine-2,11(3H)-dione]",645
3,"Cc1cc(C(F)(F)F)cc(N2C(=O)C[C@@H]3CN(c4ccccc4)c4c(F)cccc4N(C)C(=O)[C@H]32)n1 [Example 139, (3aR,11aS)-6-Fluoro-10-methyl-1-(6-methyl-4-(trifluoromethyl)pyridin-2-yl)-5-phenyl-1,3a,4,5,10,11a-hexahydro-2H-benzo[b]pyrrolo[2,3-f][1,4]diazocine-2,11(3H)-dione]",56.8
4,"COc1ccnc(N2C[C@H]3CC(=O)N(c4cc(C(F)(F)F)cc(C)n4)[C@@H]3C(=O)N(C)c3cccc(F)c32)c1 [Example 140, (3aR,11aS)-6-Fluoro-5-(4-methoxypyridin-2-yl)-10-methyl-1-(6-methyl-4-(trifluoromethyl)pyridin-2-yl)-1,3a,4,5,10,11a-hexahydro-2H-benzo[b]pyrrolo[2,3-f][1,4]diazocine-2,11(3H)-dione]",79.6
5,"COc1cccc(N2C[C@H]3CC(=O)N(c4cc(C(F)(F)F)cc(C)n4)[C@@H]3C(=O)N(C)c3cccc(F)c32)n1 [Example 141, (3aR,11aS)-6-Fluoro-5-(6-methoxypyridin-2-yl)-10-methyl-1-(6-methyl-4-(trifluoromethyl)pyridin-2-yl)-1,3a,4,5,10,11a-hexahydro-2H-benzo[b]pyrrolo[2,3-f][1,4]diazocine-2,11(3H)-dione]",86.3
6,"COc1cc(N2C[C@H]3CC(=O)N(c4cc(C(F)(F)F)cc(C)n4)[C@@H]3C(=O)N(C)c3cccc(F)c32)ccn1 [Example 142, (3aR,11aS)-6-Fluoro-5-(2-methoxypyridin-4-yl)-10-methyl-1-(6-methyl-4-(trifluoromethyl)pyridin-2-yl)-1,3a,4,5,10,11a-hexahydro-2H-benzo[b]pyrrolo[2,3-f][1,4]diazocine-2,11(3H)-dione]",461
7,"Cc1cc(C(F)(F)F)cc(N2C(=O)C[C@@H]3CN(c4ccc5ccn(C)c5n4)c4c(F)cccc4N(C)C(=O)[C@H]32)n1 [Example 143, (3aR,11aS)-6-Fluoro-10-methyl-5-(1-methyl-1H-pyrrolo[2,3-b]pyridin-6-yl)-1-(6-methyl-4-(trifluoromethyl)pyridin-2-yl)-1,3a,4,5,10,11a-hexahydro-2H-benzo[b]pyrrolo[2,3-f][1,4]diazocine-2,11(3H)-dione]",97
8,"Cc1cc(C(F)(F)F)cc(N2C(=O)C[C@@H]3CN(c4ccc5ncn(C)c5c4)c4c(F)cccc4N(C)C(=O)[C@H]32)n1 [Example 144, (3aR,11aS)-6-Fluoro-10-methyl-5-(1-methyl-1H-benzo[d]imidazol-6-yl)-1-(6-methyl-4-(trifluoromethyl)pyridin-2-yl)-1,3a,4,5,10,11a-hexahydro-2H-benzo[b]pyrrolo[2,3-f][1,4]diazocine-2,11(3H)-dione]",28.8
9,"Cc1cc(C(F)(F)F)cc(N2C(=O)C[C@@H]3CN(c4ccccn4)c4c(Cl)cccc4N(C)C(=O)[C@H]32)n1 [Example 145, (3aR,11aS)-6-Chloro-10-methyl-1-(6-methyl-4-(trifluoromethyl)pyridin-2-yl)-5-(pyridin-2-yl)-1,3a,4,5,10,11a-hexahydro-2H-benzo[b]pyrrolo[2,3-f][1,4]diazocine-2,11(3H)-dione]",30.5
10,"CCN1C(=O)[C@@H]2[C@H](CC(=O)N2c2cc(C(F)(F)F)cc(C)n2)CN(CCN2CCN(C)CC2)c2c(Cl)cccc21 [Example 146, (3aR,11aS)-6-Chloro-10-ethyl-1-(6-methyl-4-(trifluoromethyl)pyridin-2-yl)-5-(2-(4-methylpiperazin-1-yl)ethyl)-1,3a,4,5,10,11a-hexahydro-2H-benzo[b]pyrrolo[2,3-f][1,4]diazocine-2,11(3H)-dione]",7.01
11,"Cc1cc(C(F)(F)F)cc(N2C(=O)C[C@@H]3CN(CCN4CCOCC4)c4c(C)cccc4NC(=O)[C@H]32)n1 [Example 147, (3aR,11aS)-6-Methyl-1-(6-methyl-4-(trifluoromethyl)pyridin-2-yl)-5-(2-morpholinoethyl)-1,3a,4,5,10,11a-hexahydro-2H-benzo[b]pyrrolo[2,3-f][1,4]diazocine-2,11(3H)-dione]",3.62
12,"Cc1cc(C(F)(F)F)cc(N2C(=O)C[C@@H]3CN(CCN4CCNCC4)c4c(C)cccc4NC(=O)[C@H]32)n1 [Example 148, (3aR,11aS)-6-Methyl-1-(6-methyl-4-(trifluoromethyl)pyridin-2-yl)-5-(2-(piperazin-1-yl)ethyl)-1,3a,4,5,10,11a-hexahydro-2H-benzo[b]pyrrolo[2,3-f][1,4]diazocine-2,11(3H)-dione]",3.04
13,"Cc1cc(C(F)(F)F)cc(N2C(=O)C[C@@H]3CN(CCN4CCN(C)CC4)c4c(C)cccc4NC(=O)[C@H]32)n1 [Example 149, (3aR,11aS)-6-Methyl-1-(6-methyl-4-(trifluoromethyl)pyridin-2-yl)-5-(2-(4-methylpiperazin-1-yl)ethyl)-1,3a,4,5,10,11a-hexahydro-2H-benzo[b]pyrrolo[2,3-f][1,4]diazocine-2,11(3H)-dione]",3.25
